Data reported in publication PMC4336611 (Chemistry & biology, 2015).

Molecular target: LPA2 (Homo sapiens, UniProt Q9HBW0)
Format: cell-based

Chain of LPA2 (Q9HBW0 whole entry): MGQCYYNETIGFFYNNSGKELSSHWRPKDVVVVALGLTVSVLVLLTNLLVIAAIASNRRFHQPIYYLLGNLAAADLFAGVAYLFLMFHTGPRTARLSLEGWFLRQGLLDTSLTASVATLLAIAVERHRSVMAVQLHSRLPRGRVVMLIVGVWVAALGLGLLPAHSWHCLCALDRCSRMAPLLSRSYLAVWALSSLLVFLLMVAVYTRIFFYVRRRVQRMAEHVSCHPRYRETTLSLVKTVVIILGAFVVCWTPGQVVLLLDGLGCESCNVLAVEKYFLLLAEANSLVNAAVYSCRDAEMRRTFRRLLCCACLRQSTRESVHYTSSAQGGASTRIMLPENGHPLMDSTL

`O=C(O)c1ccccc1S(=O)(=O)NCCCCN1C(=O)c2cccc3cccc(c23)C1=O` [DBIBB, 2-[4-(1,3-Dioxo-1H,3H-benzo[de]isoquinolin-2-yl)butylsulfamoyl] benzoic acid] was tested, and the EC50 was roughly 0.1 µM.
